Data on one molecule can be found in patent US20130251743A1, “Fungal extracts and uses thereof” (CERMEDI OY, priority 2010, published 2013).

This experiment deals with human retinal pigment epithelial cells (hRPE). The experiment can be described thus: WST-1 cytotoxicity test of hRPE cells exposed to hydrogen peroxide-induced oxidative stress. The experiment is classed as cell-based. The conditions noted are these: ARPE-19 cells exposed to H2O2. The method, then: Human ARPE-19 retinal pigment epithelial cells (RPE) were obtained from American Type Culture Collection (USA). The cells were grown to confluency in a standard incubator in appropriate Dulbecco's MEM/Nut MIX F-12 medium (Gibco, UK). Oxidative stress was applied to the cells (1×10^4 cells/well) by using various concentrations of H2O2. Cytotoxicity was evaluated by two cytotoxicity tests, WST-1 test. WST-1 test reagent was purchased from Roche, Basel, Switzerland. WST-1 test is based on the cleavage of the tetrazolium salt WST-1 (4-*3-(4-iodophenyl)-2-(4-nitrophenyl)-2H-5-tetrazolio*-1,3-benzene disulfonate, slightly red) to formazan (dark red) by various mitochondrial dehydrogenase enzymes. The mean optical density values corresponding to the non-treated controls were taken as 100%. The results were expressed as percentages of the optical density of treated vs. untreated controls. Dose-response curves were drawn from the results expressed as mean±standard error of mean (SEM) by Graph Pad Prism software (GraphPad™, San Diego, US) using non-linear regression analysis. […] The statistical significance of the differences between the cultures exposed to H2O2 and tested extracts without or with serum was determined with the Student's two-tailed t-test (GraphPad Prism). […]
Background: Tetrazolium assays rely on reduction of a dye to a coloured formazan, in cell work by metabolically active cells.

On to `COc1cc(C[C@@H](CO)[C@H](CO)Cc2ccc(O)c(OC)c2)ccc1O` [secoisolariciresinol (SECO), secoisolariciresinol], for which the “protection of hRPE cells against oxidative damage (WST-1 test)” value was “did not protect hRPE cells from oxidative damage”.
